How the values were obtained:
PAR-1 receptor = target: T1, PAR-1 receptor (Homo sapiens, UniProt P25116); assay: PAR-1 FLIPR Assay; type: cell-based; details: HEK 293 cells, calcium signal after PAR-1 selective receptor-activating peptide at EC80
T1 construct: endogenous in cells; host or cells: HEK 293
T1 sequence (P25116 22-425): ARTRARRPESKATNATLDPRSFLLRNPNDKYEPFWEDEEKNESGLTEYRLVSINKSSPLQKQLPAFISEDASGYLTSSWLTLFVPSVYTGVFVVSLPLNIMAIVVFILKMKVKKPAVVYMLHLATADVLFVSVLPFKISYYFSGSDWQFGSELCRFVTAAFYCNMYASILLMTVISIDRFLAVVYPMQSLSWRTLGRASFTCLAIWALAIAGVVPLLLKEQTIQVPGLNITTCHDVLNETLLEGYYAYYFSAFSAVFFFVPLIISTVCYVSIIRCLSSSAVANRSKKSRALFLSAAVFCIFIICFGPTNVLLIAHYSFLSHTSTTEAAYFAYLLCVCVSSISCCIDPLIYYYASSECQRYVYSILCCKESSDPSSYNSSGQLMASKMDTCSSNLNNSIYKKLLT
Method: This assay measures the potency of the inventive compounds as PAR-1 receptor antagonists.
Frozen HEK 293 Cells were plated in 384-well PDL coated plates at 12000 cells/well in 50 uL of DMEM media containing 10% FBS, pen/strep/L-Glutamine and non-essential amino acids, incubated overnight at 37° C./5% CO2. Media was then removed from the cells, incubated with 33 uL of Calcium-5 dye in assay buffer (Hank's buffer containing 20 mM HEPES, 0.04% Chaps and 2.5 mM Probenecid) for 60 minutes at 37° C. 2 uL of varying concentrations of compound in 40% DMSO in assay buffer (final DMSO concentration is 2.3%) were then added to the cells and incubated at 25° C. for 30 minutes. The plates were added to the FLIPR Tetra®, the device added 5 uL of PAR-1 selective receptor-activating peptide (sequence Ala-parafluoroPhe-Arg-Cha-Cit-Try-Nh2, prepared in water) at a concentration equal to the effective concentration that achieved 80% activation of signaling on the day of the experiment. The range of peptide was from 1.5-3 μM. The final volume was 40 uL/well, with 2% DMSO. The FLIPR was read at an excitation wavelength of 480 nm and an emission wavelength of 535 nm, and performed 60 scans over a 1-2 min reading time. The data were analyzed by taking the peak signal over a portion of the range of the 60 scans and dividing this signal by the minimum signal for that same range. The data were expressed as percent inhibition of the maximum divided by the minimum signal achieved at 80% activation produced by the PAR1 activating peptide on the test day. The compounds of Examples 1-9 were tested in the assay described above and the data collected for these compounds is provided.

[1] = target: CYP3A4 (column heading prints CYP2D6; method and table sentence say CYP3A4) (Homo sapiens, UniProt P08684); assay: CYP MUX (3A4) RI; type: in vitro ADME; details: pH 7.4, probe testosterone (75 µM); human liver microsomes; method describes testosterone as substrate for 3A4
Chain of CYP3A4 (column heading prints CYP2D6; method and table sentence say CYP3A4) (P08684 2-503): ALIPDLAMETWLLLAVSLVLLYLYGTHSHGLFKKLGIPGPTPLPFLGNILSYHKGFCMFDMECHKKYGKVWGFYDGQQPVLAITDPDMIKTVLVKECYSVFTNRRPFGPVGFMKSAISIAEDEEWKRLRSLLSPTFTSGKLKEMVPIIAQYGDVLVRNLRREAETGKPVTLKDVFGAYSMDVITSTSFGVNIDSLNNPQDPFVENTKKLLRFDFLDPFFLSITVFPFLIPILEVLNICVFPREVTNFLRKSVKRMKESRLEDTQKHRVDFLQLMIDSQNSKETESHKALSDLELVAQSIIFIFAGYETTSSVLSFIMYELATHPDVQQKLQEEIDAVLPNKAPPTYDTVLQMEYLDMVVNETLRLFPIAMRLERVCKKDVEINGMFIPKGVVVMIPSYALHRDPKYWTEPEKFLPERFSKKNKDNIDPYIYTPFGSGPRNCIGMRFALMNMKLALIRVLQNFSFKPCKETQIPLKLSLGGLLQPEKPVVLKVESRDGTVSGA
Source text: This assay measures inhibition of CYP3A4 by a compound. Cytochromes P450 (CYPs) constitute a superfamily of heme-containing enzymes that recognize and metabolize a large number structurally diverse xenobiotics in the human body. CYP3A4 constitutes the largest portion of CYP enzymes in the liver that accounts for the metabolism of almost 50% of all drugs. This assay is used to evaluate the potential of a compound for developing DDIs. (Clarke, S. E.; Jones B. C. Drug-Drug Interactions, New York: Marcel Dekker; 2002. pp. 53-88).
Compound dilutions and assay-ready plates were prepared on a TTP Labtech Mosquito® HTS. Assay conduction was fully automated on a customized Screening Platform from Caliper (now PerkinElmer) containing a Mitsubishi robotic plate handler, Liconic incubators, a Caliper Zephyr® liquid handling workstation equipped with temperature-controlled deck positions, a Biotek MultiFlo™ dispenser and an Agilent PlateLoc heat sealer. Assay plates were Corning Costar® 384 well PP plates. High throughput mass spectrometric readout was performed on a RapidFire® 300 system coupled to an AB Sciex API 4000™ triple quadrupole device. CYP isoform 3A4 was incubated in a separate reaction of 50 μL final volume. 25 μL of HLM (human liver microsomes, BD UltraPool™ 150, 0.25 mg/mL final concentration) and the respective substrate, testosterone (75 μM) for 3A4, in potassium phosphate buffer (100 mM, pH=7.4) were added to 250 nL of stamped compound solution (10 mM in DMSO). The reactions were started upon addition of 25 μL of a co-factor solution containing magnesium chloride (3.3 mM), glucose-6-phosphate (3.3 mM), glucose-6-phosphate dehydrogenase (1.4 units) and NADP (1 mM) in potassium phosphate buffer (100 mM, pH=7.4) and incubated on deck at 37° C. for 10 min. 8 μL of each reaction were transferred to the same readout plated filled with 48 μL of stop solution containing internal standards (concentration in final readout plate), 6-hydroxytestosterone-D7 (0.5 μM), 4′-hydroxydiclofenac-D4′-(0.2 μM), and dextrorphan-D3 (0.01 μM), in acetonitrile with 0.5% formic acid. After heat sealing, plates were stored at −20° C. for at least 30 min, centrifuged and subjected directly to RapidFire®/MS analysis.
(§1) Table 4 summarizes the selectivity of the inventive compounds in the CYP3A4 assay and the ability of the inventive compound to inhibit hERG.

hERG channel = target: T2, hERG channel (Homo sapiens, UniProt Q12809); assay: MK-499 Filter Binding Assay; details: [35S]MK-0499 radioligand competition, membranes of HEK293 cells expressing hERG, read-out: MK499 IC50; for IC50 at 90 min: human, pH 7.4, probe [35S]MK-0499 radioligand
T2 construct: expressed in transfected cells; host or cells: HEK293, stably transfected; membranes
T2 sequence (Q12809 whole entry): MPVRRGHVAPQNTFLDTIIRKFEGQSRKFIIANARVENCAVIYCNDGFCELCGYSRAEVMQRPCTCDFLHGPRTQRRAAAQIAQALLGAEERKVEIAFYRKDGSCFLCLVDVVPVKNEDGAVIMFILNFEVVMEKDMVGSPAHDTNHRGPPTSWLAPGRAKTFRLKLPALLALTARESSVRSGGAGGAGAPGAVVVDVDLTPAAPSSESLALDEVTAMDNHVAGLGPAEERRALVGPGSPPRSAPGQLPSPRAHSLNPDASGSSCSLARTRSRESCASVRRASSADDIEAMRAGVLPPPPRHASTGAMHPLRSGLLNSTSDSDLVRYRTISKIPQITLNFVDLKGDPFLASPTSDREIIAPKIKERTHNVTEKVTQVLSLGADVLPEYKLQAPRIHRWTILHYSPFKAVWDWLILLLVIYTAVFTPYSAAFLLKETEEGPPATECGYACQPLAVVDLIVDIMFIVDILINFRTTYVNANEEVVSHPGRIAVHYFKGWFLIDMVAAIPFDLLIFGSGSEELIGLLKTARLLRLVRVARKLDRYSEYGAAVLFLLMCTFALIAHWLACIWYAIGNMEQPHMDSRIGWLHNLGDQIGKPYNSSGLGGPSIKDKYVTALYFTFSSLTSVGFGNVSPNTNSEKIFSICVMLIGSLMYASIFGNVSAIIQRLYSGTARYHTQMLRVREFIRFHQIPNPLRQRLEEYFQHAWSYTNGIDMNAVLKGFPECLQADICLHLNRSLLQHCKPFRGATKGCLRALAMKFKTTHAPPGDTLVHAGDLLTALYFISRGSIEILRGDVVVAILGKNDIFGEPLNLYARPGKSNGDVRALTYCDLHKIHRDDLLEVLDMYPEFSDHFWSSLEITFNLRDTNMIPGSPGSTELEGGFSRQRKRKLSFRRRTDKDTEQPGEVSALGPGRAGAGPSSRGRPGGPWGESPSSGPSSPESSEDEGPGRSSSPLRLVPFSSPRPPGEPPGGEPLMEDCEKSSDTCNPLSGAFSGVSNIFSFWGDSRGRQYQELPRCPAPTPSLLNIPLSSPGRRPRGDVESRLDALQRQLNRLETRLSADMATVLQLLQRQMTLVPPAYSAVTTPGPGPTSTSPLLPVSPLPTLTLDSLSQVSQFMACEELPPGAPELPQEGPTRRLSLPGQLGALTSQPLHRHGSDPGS
Source text: MK-499 Filter Binding Assay
This assay is used to evaluate the potential of a compound to cause drug-induced log QT syndrome.
Drug cardiac arrhythmia is an important safety concern for pharmaceutical development and health regulatory authorities. Blockade of heterologously-expressed human ether-à-go-go gene (hERG) channel prolongs the duration of the cardiac action potential leading to a long QT interval that can lead to sudden death (De Ponti, F.; et at Drug Safety 2002, 25, pp. 263-286). It is important to have compounds devoid of hERG channel activity as measured by an in vitro assay. Affinity of compounds for the hERG channel was evaluated in radioligand competition experiments using HEK293 cells that were stably transfected with the hERG channel and radiolabeled ligand, MK-499 a potent antiarrhythmic. This assay correlates well with QT prolongation in vivo (Jamieson, C.; et al., J. Med. Chem. 2006, 49, pp. 5029-5046).
25 μL Target membranes (in assay buffer: 10 mM HEPES/NaOH, pH 7.4, 70 mM NaCl, 60 mM KCl, 2 mM MgCl2, 1 mM CaCl2) purified from a HEK293 cell line expressing the human Ether-à-go-go Related Gene (hERG) ion channel, 1 μL test compound in 10 mM DMSO and 25 μL (6,000 cpm/well; in assay buffer) [35S]MK-0499 radioligand (Merck/Perkin Elmer) are added to the assay plate (Axygen; 384 Deep well “Diamond Plate”, clear). After incubation of the binding reaction at room temperature (RT) for 90 min 50 μL of the assay were transferred to a MultiscreenHTS 384 FC filter plate (Millipore), which has been pre-wetted with 20 μL 0.01% PEI/0.01% Triton X-100 for at least 30 min at RT. Then, 30 μL it wash buffer (10 mM HEPES/NaOH, pH 7.4, 130 mM NaCl, 2 mM MgCl2, 1 mM CaCl2) equilibrated to RT were added to each well of the assay plate and subsequently transferred to the filter plate. The assay mixture was aspirated through the filter plate using a Biotek ELx405™ washer. The filter plate was washed twice with 100 μl cold wash buffer per wash and well and then dried in a drying oven for at least 75 min at 55° C. Afterwards, the bottom of each filter plate was heat sealed with a solid foil seal, then 10 μL of Microscint™ 0 (Perkin Elmer) were added to each well of the filter plate and finally, the top of each filter plate was sealed with a clear seal. The plates were stored for at least 20 min in a MicroBeta2 reader (Perkin Elmer) before they are counted (60 sec/well).
as §1

Compound	IC50 (PAR-1 receptor) [nM]	IC50 at 10 min [1] [µM]	IC50 at 90 min (hERG channel) [µM]	IC50 (hERG channel) [µM]
C[C@H]1OC(=O)[C@]2(O)CC(F)(F)[C@@H](C)[C@H](/C=C/c3ccc(-c4cccnc4C#N)cn3)[C@H]12 [Example 1, 6′-((E)-2-((3R,3aR,4R,5S,7aS)-6,6-difluoro-7a-hydroxy-3,5-dimethyl-1-oxooctahydroisobenzofuran-4-yl)vinyl)-[3,3′-bipyridine]-2-carbonitrile]	5.9	≥ 50	≥ 60	
COc1ncccc1-c1ccc(/C=C/[C@@H]2[C@@H]3[C@@H](C)OC(=O)[C@]3(O)CC(F)(F)[C@H]2C)nc1 [Example 3, (3R,3aR,4R,5S,7aS)-6,6-difluoro-7a-hydroxy-4-((E)-2-(2′-methoxy-[3,3′-bipyridin]-6-yl)vinyl)-3,5-dimethylhexahydroisobenzofuran-1(3H)-one]	5.4	≥ 50	≥ 60	
C[C@H]1OC(=O)[C@]2(O)CC(F)(F)[C@@H](C)[C@H](/C=C/c3ccc(-c4cccnc4Cl)cn3)[C@H]12 [Example 4, (3R,3aR,4R,5S,7aS)-4-((E)-2-(2′-chloro-[3,3′-bipyridin]-6-yl)vinyl)-6,6-difluoro-7a-hydroxy-3,5-dimethylhexahydroisobenzofuran-1(3H)-one]	7.8	≥ 50		18.7
C[C@H]1OC(=O)[C@]2(O)CC(F)(F)[C@@H](C)[C@H](/C=C/c3ccc(-c4cccnc4-c4ccccc4)cn3)[C@H]12 [Example 2, (3R,3aR,4R,5S,7aS)-6,6-difluoro-7a-hydroxy-3,5-dimethyl-4-((E)-2-(2′-phenyl-[3,3′-bipyridin]-6-yl)vinyl)hexahydroisobenzofuran-1(3H)-one]	9	28.5		39.8

Second part, led by results:

IC50 (PAR-1 receptor) [nM]	IC50 at 10 min [1] [µM]	Compound	IC50 at 90 min (hERG channel) [µM]	IC50 (hERG channel) [µM]
15.2	≥ 50	Cc1ccc(-c2ncccc2-c2ccc(/C=C/[C@@H]3[C@@H]4[C@@H](C)OC(=O)[C@]4(O)CC(F)(F)[C@H]3C)nc2)s1 [Example 7, (3R,3aR,4R,5S,7aS)-6,6-difluoro-7a-hydroxy-3,5-dimethyl-4-((E)-2-(2′-(5-methylthiophen-2-yl)-[3,3′-bipyridin]-6-yl)vinyl)hexahydroisobenzofuran-1(3H)-one]		20.8
16.2	≥ 50	C[C@H]1OC(=O)[C@]2(O)CC(F)(F)[C@@H](C)[C@H](/C=C/c3ccc(-c4cccnc4F)cn3)[C@H]12 [Example 5]	≥ 60	
10.4	≥ 50	C[C@H]1OC(=O)[C@]2(O)CC(F)(F)[C@@H](C)[C@H](/C=C/c3ccc(-c4cccnc4C4CC4)cn3)[C@H]12 [Example 6, (3R,3aR,4R,5S,7aS)-4-((E)-2-(2′-cyclopropyl-[3,3′-bipyridin]-6-yl)vinyl)-6,6-difluoro-7a-hydroxy-3,5-dimethylhexahydroisobenzofuran-1(3H)-one]	≥ 60	
92.4	≥ 50	C[C@H]1OC(=O)[C@]2(O)CC(F)(F)[C@@H](C)[C@H](/C=C/c3ccc(-c4cccnc4N4CC(F)(F)C4)cn3)[C@H]12 [Example 9, (3R,3aR,4R,5S,7aS)-4-((E)-2-(2′-(3,3-difluoroazetidin-1-yl)-[3,3′-bipyridin]-6-yl)vinyl)-6,6-difluoro-7a-hydroxy-3,5-dimethylhexahydroisobenzofuran-1(3H)-one]	≥ 60	
	≥ 50	C[C@H]1OC(=O)[C@]2(O)CC(F)(F)[C@@H](C)[C@H](/C=C/c3ccc(-c4cccnc4-c4cncn4C)cn3)[C@H]12 [Example 8, (3R,3aR,4R,5S,7aS)-6,6-difIuoro-7a-hydroxy-3,5-dimethyl-4-((E)-2-(2′-(l-methyl-1H-imidazol-5-yl)-[3,3′-bipyridin]-6-yl)vinyl)hexahydroisobenzofuran-1(3H)-one]	≥ 60	

— US9808473B2, “Preparation and use of 3-pyridyl substituted-6,6-difluoro bicyclic himbacine derivatives as par-1 receptor antagonists” (Merck Sharp & Dohme Corp., priority 2013, dated 2017)
